Measurements: paper PMC9330389, “Bambus[4,6]urils as Dual Scaffolds for Multivalent Iminosugar Presentation and Ion Transport: Access to Unprecedented Glycosidase-Directed Anion Caging Agents” (Molecules, 2022)
Where two headings read alike, the source gives them in different places.

Columns and labels:
Jack Bean α-mannosidase [1] = target: T1, Jack Bean α-mannosidase (Canavalia ensiformis, UniProt C0HJB3); conditions: cited from earlier work; for Inhibition Mode: monovalent references
T1 construct: purchased Sigma Aldrich, St. Louis, MO, USA
T1 sequence (C0HJB3 1-981): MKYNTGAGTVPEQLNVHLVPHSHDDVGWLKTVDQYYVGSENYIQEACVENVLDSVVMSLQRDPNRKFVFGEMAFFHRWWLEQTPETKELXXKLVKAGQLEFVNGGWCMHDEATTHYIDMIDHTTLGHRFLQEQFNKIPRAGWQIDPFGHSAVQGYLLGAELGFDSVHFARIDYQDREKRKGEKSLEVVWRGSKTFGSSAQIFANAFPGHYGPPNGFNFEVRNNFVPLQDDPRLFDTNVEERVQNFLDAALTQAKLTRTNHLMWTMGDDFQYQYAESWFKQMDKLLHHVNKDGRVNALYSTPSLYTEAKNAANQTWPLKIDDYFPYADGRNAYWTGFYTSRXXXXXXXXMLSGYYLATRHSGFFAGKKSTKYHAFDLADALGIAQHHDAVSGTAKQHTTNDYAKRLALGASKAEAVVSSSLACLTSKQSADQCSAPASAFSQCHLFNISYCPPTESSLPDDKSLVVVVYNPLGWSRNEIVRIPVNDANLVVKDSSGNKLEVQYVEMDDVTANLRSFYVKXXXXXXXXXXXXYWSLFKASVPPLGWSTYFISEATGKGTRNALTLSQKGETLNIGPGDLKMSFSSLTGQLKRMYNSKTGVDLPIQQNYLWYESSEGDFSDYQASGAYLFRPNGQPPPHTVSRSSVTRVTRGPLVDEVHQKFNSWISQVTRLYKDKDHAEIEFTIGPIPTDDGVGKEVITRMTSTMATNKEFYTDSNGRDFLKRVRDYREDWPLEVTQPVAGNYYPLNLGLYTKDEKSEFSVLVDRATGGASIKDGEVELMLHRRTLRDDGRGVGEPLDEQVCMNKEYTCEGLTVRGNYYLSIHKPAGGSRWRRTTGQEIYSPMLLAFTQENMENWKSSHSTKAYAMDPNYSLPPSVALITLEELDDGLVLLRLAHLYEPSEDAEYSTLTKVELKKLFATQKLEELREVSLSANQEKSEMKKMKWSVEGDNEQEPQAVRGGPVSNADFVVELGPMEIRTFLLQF

Jack Bean α-mannosidase [2] = target: T1, Jack Bean α-mannosidase; assay: Inhibition assays on Jack-Bean α-mannosidase (p-nitrophenyl-α-D-mannopyranoside hydrolysis, Dixon and Lineweaver–Burk); assay type: biochemical
Method: p-nitrophenyl-α-D-mannopyranoside and α-mannosidase (EC 3.2.1.24, from Jack Bean) were purchased from Sigma Aldrich, St. Louis, MO, USA. Inhibition constants were determined spectrophotometrically by measuring the residual hydrolytic activities of the α-mannosidase against p-nitrophenyl-α-D-mannopyranoside in the presence and absence of an inhibitor. Each well was filled with a total volume of 100 µL, containing 0.2 M acetate buffer pH 5, inhibitor, substrate and enzyme. All kinetics were performed between 25 °C and 27 °C and started by enzyme addition. After 30–50 min of incubation, the reaction was quenched by addition of 100 µL of 1M Na2CO3. The absorbance of the resulting solution was determined at 405 nm. Ki values were determined in triplicate, using the Dixon and Lineweaver–Burk graphical methods within Microsoft Excel. Stock solutions of inhibitors were prepared with DMSO/buffer for final well DMSO content under 5%. The stability of the enzyme in the presence of the same concentrations of DMSO was controlled and enzyme activity was unaffected.

| Compound | Ki (Jack Bean α-mannosidase [1]; monovalent C6 reference) [µM] | Inhibition Mode (Jack Bean α-mannosidase [1]) | Ki (Jack Bean α-mannosidase [1]; monovalent C9 reference) [µM] | Inhibition Mode (Jack Bean α-mannosidase [2]) | Ki (Jack Bean α-mannosidase [2]; 0.2 M acetate buffer pH 5, 25-27 °C, for mixed inhibitors the first value of the cell (Ki)) [µM] | Ki' (Jack Bean α-mannosidase [2]; mixed inhibition, second value of the cell (Ki' in supplement)) [µM] | rp/n (relative potency per inhitope) (Jack Bean α-mannosidase [2]; n = number of inhitope units) | Rp (relative potency) (Jack Bean α-mannosidase [2]; rp = Ki (monovalent reference)/Ki (neoglycocluster)) |
| --- | --- | --- | --- | --- | --- | --- | --- | --- |
| CCCn1cc(CCCCCCN2C[C@H](O)[C@@H](O)[C@H](O)[C@H]2CO)nn1 [Compound 21] | 322 | competitive | – | – | – | – | – | – |
| CCCn1cc(CCCCCCCCCN2C[C@H](O)[C@@H](O)[C@H](O)[C@H]2CO)nn1 [Compound 22] | – | competitive | 188 | – | – | – | – | – |
| CCCC[N+](CCCC)(CCCC)CCCC.O=C1N(Cc2cn(CCCCCCN3C[C@H](O)[C@@H](O)[C@H](O)[C@H]3CO)nn2)C2C(N1Cc1cn(CCCCCCN3C[C@H](O)[C@@H](O)[C@H](O)[C@H]3CO)nn1)N1CN3C(=O)N(CN4C(=O)N(CN5C(=O)N(CN6C(=O)N(CN7C(=O)N(CN2C1=O)C1C7N(Cc2cn(CCCCCCN7C[C@H](O)[C@@H](O)[C@H](O)[C@H]7CO)nn2)C(=O)N1Cc1cn(CCCCCCN2C[C@H](O)[C@@H](O)[C@H](O)[C@H]2CO)nn1)C1C6N(Cc2cn(CCCCCCN6C[C@H](O)[C@@H](O)[C@H](O)[C@H]6CO)nn2)C(=O)N1Cc1cn(CCCCCCN2C[C@H](O)[C@@H](O)[C@H](O)[C@H]2CO)nn1)C1C5N(Cc2cn(CCCCCCN5C[C@H](O)[C@@H](O)[C@H](O)[C@H]5CO)nn2)C(=O)N1Cc1cn(CCCCCCN2C[C@H](O)[C@@H](O)[C@H](O)[C@H]2CO)nn1)C1C4N(Cc2cn(CCCCCCN4C[C@H](O)[C@@H](O)[C@H](O)[C@H]4CO)nn2)C(=O)N1Cc1cn(CCCCCCN2C[C@H](O)[C@@H](O)[C@H](O)[C@H]2CO)nn1)C1C3N(Cc2cn(CCCCCCN3C[C@H](O)[C@@H](O)[C@H](O)[C@H]3CO)nn2)C(=O)N1Cc1cn(CCCCCCN2C[C@H](O)[C@@H](O)[C@H](O)[C@H]2CO)nn1.[I-] (stereo partly drawn) [Compound 9, I^-@(DNJ-C6)12BU[6].TBA^+] | – | – | – | mixed | 108 | 162 ± 40 | < 1 | 3.0 |
